# Source: patent US8518373B2, “Ionic and non-ionic radiographic contrast agents for use in combined X-ray and nuclear magnetic resonance diagnostics” (priority 2001, dated 2013)
# Like-named read-outs stand apart in the source and are kept apart here.
# Columns and labels:
# [1] = cited from earlier work
# [2] = cited from earlier work; remark: listed apart in the source
# [3] = rabbit, in vivo, cited from earlier work
# [4] = residual water signal after irradiating the amido protons, effect of radiofrequency field intensity, 200 mM Iopamidol; conditions: for % residual signal: 200 mM, pH 6.29, 2.1 T, 39° C., rf field at 9.4 ppm
# Method: A 200 Mm Iopamidol solution at pH=6.29 was investigated at 2.1 T magnetic field intensity and at a temperature of 39° C. (JEOL EX-90 spectrometer). Considering 100 the area of the water signal with irradiation at −9.4 ppm, its decrease (expressed as % residual signal) was evaluated in the presence of a rf field tuned at 9.4 ppm (signal of the amido protons).
# [5] = dog, in vivo; cited from earlier work
# [6] = residual water signal after irradiating the amido proton signal, effect of temperature, 200 mM Iopamidol; conditions: pH 6.74, 2.1 T, irradiation at 9.4 ppm, attenuation 300 dB
# Method: A 200 mM Iopamidol solution at pH=6.74 was investigated at 2.1 T magnetic field intensity (JEOL EX-90 spectrometer). After irradiating the amido proton signal at 9.4 ppm, with attenuation of 300 dB, the area under the water signal was measured. Considering 100 the area of the water signal with irradiation at −9.4 ppm, a drastic reduction is observed following irradiation of the amido protons. The effect increases as temperature increase so that: […]
# [7] = Z-spectra and Saturation transfer (ST) profiles of aqueous solutions in MT imaging; conditions: 7 T, pH 7.4, 312 K, 30 mM (Gd-DTPA 1 mM)
# Method: The Magnetization Transfer or, more precisely, the amount of saturation transfer (ST) registered in a MT based MRI procedure following irradiation of the mobile proton(s), is conveniently quantified as ST % according to the following equation (2) ST %=100×(1−Ms/M0) (2)
# In a first series, tests were conducted at physiological pH and temperature. A second series of tests were conducted at acidic pH.
# In the first series of tests, Z-spectra and corresponding Saturation transfer (ST) profiles were measured at 7 T, pH 7.4 and 312 K, for aqueous solutions of iopamidol (30 mM), L-amino acids alanine, glutamine and lysine (each 30 mM), Gd-DTPA (1 mM) and Iopamidol (30 mM).
molecule,measurement,setting,value
O=C1NCCN1 [2-Imidazolidinone],LD50 intraperitoneal mouse,"[1]; intraperitoneal, mouse",500 mg/kg
O=C1CC(=O)NC(=O)N1 [Barbituric Acid],LD50 orally in male rats,"[2]; oral, male rats",> 5000 mg/kg
N=C(N)N [Guanidine],LD orally in rabbits,[3]; po,500 mg/kg
C[C@H](O)C(=O)Nc1c(I)c(C(=O)NC(CO)CO)c(I)c(C(=O)NC(CO)CO)c1I [Iopamidol],reduction of the signal from water in MRI saturation transfer,[4]; 2.1 T magnetic field,80%
same,% residual signal,[4]; attenuation 300 dB,15%
same,% residual signal,[4]; attenuation 400 dB,40%
same,LD50 in rats,"[2]; rat, in vivo",28.2 g/kg
same,LD50 in dogs,[5],34700 mg/kg
same,LD50 in mice,"[1]; mouse, in vivo",44.5 g/kg
same,LD50 in rabbits,[3],19600 mg/kg
same,% residual signal,[6]; 15° C.,39%
same,% residual signal,[6]; 25° C.,30%
same,% residual signal,[6]; 39° C.,24%
N=C(N)NCCC[C@H](N)C(=O)O [L-Arginine],LD50 intravenous mouse,"[1]; mouse, in vivo, iv",2030 mg/kg
C[C@H](N)C(=O)O [L-alanine],Saturation Transfer Value pH = 7.4,[7],0
same,Saturation Transfer Value pH = 7.4,[7]; listed as alanine,failed to provide any detectable signals
NCCCC[C@H](N)C(=O)O [L-lysine],Saturation Transfer Value pH = 7.4,[7],0
same,Saturation Transfer Value pH = 7.4,[7]; listed as lysine,failed to provide any detectable signals
CC(=O)Nc1c(I)c(C(=O)N[C@H]2C(O)O[C@H](CO)[C@@H](O)[C@@H]2O)c(I)c(N(C)C(C)=O)c1I (stereo partly drawn) [Metrizamide],LD50 i.v. in mice,"[1]; i.v., mice (Aspelin)",17300 mg/kg
same,LD50 i.v. in mice,"[1]; i.v., mice (Salvenson)",18600 mg/kg
same,LD50 i.v. in mice,"[1]; i.v., mice (Sovak)",11500 mg/kg
same,LD50 i.v. in mice,"[1]; i.v., mice (Torsten)",15000 mg/kg
O=C(O)C1CCCCN1 (stereo not drawn) [Pipecolinic. Acid],LD50 intravenous mouse,"[1]; intravenous, mouse",2200 mg/kg
CC(=O)Nc1c(I)c(NC(C)=O)c(I)c(C(=O)[O-])c1I.[Na+] [Sodium diatrizoate],LD50 i.v. in rats,"[2]; i.v., rats (Langecker)",14700 mg/kg
Cc1cn([C@H]2C[C@H](O)[C@@H](CO)O2)c(=O)[nH]c1=O [Thymidine],LD50 intraperitoneal mouse,"[1]; mouse, in vivo, ip",2512 mg/kg
Iopromide,LD50 in rats,"[2]; rats, i.v.",11.4 g iodine/kg body weight
same,LD50 in mice,"[1]; mice, i.v.",16.5 g iodine/kg body weight
